Laboratory results published in patent US10301264B2, “Compounds useful for treating ocular neovasculan” (The University of Nottingham, priority 2012, dated 2019).
≈ marks a conversion by molar mass, not a printed value.

Assays:
laser-induced CNV [1] = assay: Laser-induced mouse CNV model, topical eye drops; format: in vivo; conditions: mouse, topical
Protocol: (§1) Laser Lesion Induction Protocol
(§2) Six to eight week-old C57/B6 mice (B&K Laboratories) and adult Norway-Brown rats (Harlan Laboratories) were anaesthetized with an intraperitoneal injection of a mixture of 50 mg/kg ketamine and 0.5 mg/kg medetomidine. The pupils were dilated with 2.5% phenylephrine hydrochloride and 1% tropicamide. Four photocoagulation lesions were delivered with a krypton red laser (Mice: 250 mW, 0.01 s, 75 μm, Rats: 200 mW, 0.01 s, 75 μm, IRIS Medical 810 nm Oculight Slx laser) between the retinal vessels in a peripapillary distribution at a distance of 1-2 disc-diameters in each eye. Only laser lesions with a subretinal bubble at the time of treatment were included in the study. […] Animals were culled on either day 4 or day 14 and eyes were either unfixed for retinal dissection and protein extraction, or fixed and enucleated and choroids stained for isolectin-B4 and examined.
We performed a dose response trial investigating SRPIN340 topical eye drops. SRPIN340 was dissolved in a previously described drug delivery vehicle (Doukas et al., 2008) and administered twice daily. Fourteen days following laser insult choroids were fixed and flatmounted for isolectin staining and retinae were extracted for RNA analysis.

[2] = tested on: VEGF165b protein in RPE cells; assay: Western blotting for VEGF165b in RPE cells; format: cell-based, human; conditions: 100 nM, FIG. 9B
Protocol: Protein was extracted from RPE cells treated for 48 hours with SPHINXes and subjected to western blotting for VEGF165b using anti-VEGF165b antibody as previously described (Gammons et al Invest. Ophthahnol. Vis. Sci. 54(9) 6052-6062).

laser-induced CNV [3] = assay: Laser-induced mouse CNV model, intravitreal injection; format: in vivo; conditions: discussion summary, route not stated
Protocol: as §1, §2

[4] = tested on: SRSF1 phosphorylation in PC3 prostate cancer cells; assay: Inhibition of SRSF1 phosphorylation induced by EGF activation; format: cell-based; conditions: 10 μM, 1 hr, 10 nM EGF
Protocol: Inhibition of SRSF1 Phosphorylation Induced by EGF Activation. […] Cells were lysed, and subjected to immunoblotting using an antibody to phosphorylated SR proteins (MAB104) and an antibody to tubulin as a loading control. Intensity was measured for SRSF1 and SRSF5 bands using ImageJ Intensity. Phosphorylation is calculated as the increase in intensity of the band over untreated relative to that for EGF with vehicle.

[5] = tested on: VEGF165 mRNA isoforms in primary RPE cells; assay: RT-PCR for VEGF165 / VEGF165b mRNA in primary RPE cells; format: cell-based, human; conditions: 100 nM, FIG. 9A
Protocol: ID NO: 5)). […] Cells were treated with […]6 and 7 and the PCR repeated.

- IC50 (laser-induced CNV [1]; FIG. 11, read-out: IC50 for inhibition of CNV as an eye drop): 0.225 µg/mL (≈ 0.462 µM)
SMILES: CN(C)CCN1CCN(c2ccc(C(F)(F)F)cc2NC(=O)c2ccc(-c3ccncc3)o2)CC1 [SPHINX7]
- CNV formation, eye drop (laser-induced CNV [1]): significantly inhibited CNV formation
- VEGF165b at protein level [2]: increase VEGF165b
- area of neovascular lesions, mouse laser-induced CNV model (laser-induced CNV [3]): achieving significance
- SRSF1 phosphorylation induced by EGF [4]: inhibit SRSF1 phosphorylation
- amount of VEGF165 at RNA level [5]: reduce the amount of VEGF165
